# Structures can show the parent of a compound that is named as a salt.
# Key:
# [1] = target: T1, human metastin receptor hOT7T175 (Homo sapiens, UniProt Q969F8, L364H); assay: binding inhibiting activity: 125I-metastin (40-54) binding to cell membrane fraction of h175 KB34 cells; conditions: room temperature 60 minutes, read-out: binding inhibiting activity, represented by the IC50 value
# T1 construct: encoding the entire length of human metastin receptor hOT7T175; expressed in transfected cells; host or cells: CHO/dhFr- cells (ATCC #CRL-9096) stably transfected with pAKKO-hOT7T175; clone h175-16 was used as whole cells for FLIPR
# Summary of the method: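 The assay buffer (pH 7.4 Tris with magnesium acetate, EGTA and a protease-inhibitor cocktail) was used either plain or supplemented with 1 mg/ml BSA. The radioligand was 125I-labelled human metastin (40-54). The receptor source was a 250-fold diluted membrane fraction of the stable CHO/dhfr− line h175 KB34.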
# [2] = system: blood LH level; assay: Suppression of the blood LH level of castrated rats; assay type: in vivo, rat; conditions: male castrated Wistar rats
# Procedure: The compound of Example 303 was intravenously administered to male castrated rats, and the blood LH level was measured. Male Wistar rats (Japan SLC, Inc.), which were castrated 7 days before the experiment and were 11 weeks old at the time of the experiment, were used. […] To the control animals (n=8), only 20% DMSO-[…]% PEG400 used as a dispersion medium was intravenously administered in an amount of 0.8 ml/kg every 10 minutes, 5 times in succession. […] The LH concentration in the plasma was measured by radioimmunoassay. […] The start time of the administration was set to 0 (represented with the arrow).
# [3] = target: T1, human metastin receptor hOT7T175; assay: FLIPR assay of metastin-induced change in intracellular calcium in h175-16 cells (antagonist activity); assay type: cell-based; conditions: human metastin (40-54) as ligand, Fluo-3 fluorescence
# Procedure: cDNA fragments (SEQ ID NO: 2) encoding the entire length of human metastin receptor hOT7T175 were incorporated into expression vector pAKKO1.11H to produce animal cell expression plasmids pAKKO-hOT7T175. CHO/dhFr-cells (ATCC, #CRL-9096) were seeded onto 6 cm culture dishes (Becton Dickinson) at a density of 0.3×10^6 cells/dish, and cultured in the conditions of 48 hours, 37° C. and 5% CO2. 5 μg pAKKO-hOT7T175 plasmid DNA was transfected to the resultant cells by a known method (described in Example 3 of WO 00/24890) using the Cellphect Transfection Kit (Amersham, #27-9268-01). The DNA-transfected cells were cultured in the Dulbecco's modified Eagle medium (DMEM) (Sigma, #D6046) containing 10% dialyzed FBS (Biowest, #S180D), 1× Non-Essential Amino Acid (Invitrogen, #11140-050) and 50 μg/ml Gentamycin (Invitrogen, #15750-060; and cell strains stably expressing the plasmid genes were selected. The obtained 41 clones were treated with the FLIPR assay (in accordance with the method described in Example 3 of WO 00/24890), and the reactivity to the human metastin […] (Nos. 40 to 54 of the human metastin sequence; Peptide Institute, Inc., #4389-v) was evaluated. In the end, h175 KB34 cell strains were selected. By substantially the same method, h175-16 cell strains were also produced.
# The h175-16 cell strains prepared in Test Example 1 were seeded onto a 96-well plate (Corning, #3904) at 3×10^4 cell/well, and cultured for 24 hours on a CO2 incubator (cell seeding plate).
# A calcium kit buffer containing 0.1% BSA [20 mM HEPES, 115 mM NaCl, 5.4 mM KCl, 0.8 mM MgCl2, 1.8 mM CaCl2, 13.8 mM D-glucose, pH 7.4, with an attached calcium kit produced by Dojin] was prepared and kept warm at 37° C. Then, the medium in the wells of the cell seeding plate was removed, and […] of the calcium kit buffer was added to each well. 50 μl 250 mM Probenecid (with an attached calcium kit produced by Dojin), 80 μl 5% Pluronic F-127 (with an attached calcium kit produced by Dojin) and 25 μl Fluo-3 AM (powder with an attached calcium kit produced by Dojin was dissolved in DMSO at 1 mg/ml) were added to the calcium kit buffer containing 5 ml 0.1% BSA (an amount for measuring one plate) to prepare a loading solution. 50 μl of the loading solution was added to each well to allow a reaction at 37° C. for 1 hour. Thus, Fluo-3 AM was loaded onto the cells. Then, the solution in each well was removed, and 100 μl of the calcium kit buffer containing 1.25 mM Probenecid and 0.1% BSA was added to each well.
# 50 μl of a test compound diluted with the calcium kit buffer containing 0.1% BSA was added to each well, and stirred by a plate shaker. A cell plate, and a ligand plate provided with human metastin (40-54) (AnyGen) diluted to 400 μM with the calcium kit buffer containing 0.1% BSA, were set to the Fluorometric Imaging Plate Reader (FLIPR, Molecular Devices), and […] was added to each well using an automatic divider in the FLIPR. A change in the calcium concentration in the cells, which corresponded to the ligand response, was measured by a CCD camera in the FLIPR as a change in the amount of fluorescence of Fluo-3. The obtained change in the amount of fluorescence was plotted against the concentration of the test compound, and the compound concentration at which 50% of the change in the amount of fluorescence (i.e., IC50 value) was inhibited was calculated.
# T1 sequence (Q969F8 whole entry L364H): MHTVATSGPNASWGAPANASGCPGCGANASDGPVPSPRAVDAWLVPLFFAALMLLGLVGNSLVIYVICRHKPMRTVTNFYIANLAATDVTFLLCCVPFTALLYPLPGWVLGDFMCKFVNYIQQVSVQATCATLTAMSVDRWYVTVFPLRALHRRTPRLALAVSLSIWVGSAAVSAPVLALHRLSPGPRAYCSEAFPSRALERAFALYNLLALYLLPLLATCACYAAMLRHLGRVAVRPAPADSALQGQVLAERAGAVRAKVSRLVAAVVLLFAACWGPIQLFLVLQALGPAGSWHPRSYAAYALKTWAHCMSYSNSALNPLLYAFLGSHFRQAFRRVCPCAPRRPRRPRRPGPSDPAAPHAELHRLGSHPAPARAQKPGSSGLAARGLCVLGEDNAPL
smiles,measurement,setting,value
"Cl.N#Cc1c(-c2cccc(N3CCNCC3)c2)cc(-c2ccc(F)cc2O)nc1NC(=O)c1ccco1 [Example 303, N-[3-cyano-6-(4-fluoro-2-hydroxyphenyl)-4-(3-piperazin-1-ylphenyl)pyridin-2-yl]-2-furamide hydrochloride]",IC50,[1],≤ 10 µM
same,"blood LH concentration, % of that of the control group","[2]; intravenous 0.22 mg/kg every 10 minutes 5 times, 60 minutes after the start of administration, P<0.01",68%
same,effect on blood LH concentration (in words),[2]; intravenously administered,significantly decreasing the blood LH concentration
"Cl.N#Cc1c(-c2cccc(C(=O)NCCN)c2)cc(-c2ccccc2O)nc1NC(=O)c1cccs1 [Example 3, N-[4-(3-{[(2-aminoethyl)amino]carbonyl}phenyl)-3-cyano-6-(2-hydroxyphenyl)pyridin-2-yl]thiophene-2-carboxamide hydrochloride]",IC50,[1],≤ 10 µM
same,melting point,,203 to 210 °C
same,IC50,[3],≤ 10 µM
"N#Cc1c(-c2cccc(NC(=O)CN)c2)cc(-c2ccccc2O)nc1NC(=O)c1cccs1 [Example 12, N-[3-cyano-4-[3-(glycylamino)phenyl]-6-(2-hydroxyphenyl)pyridin-2-yl]thiophene-2-carboxamide dihydrochloride]",IC50,[1],≤ 10 µM
same,IC50,[3],≤ 10 µM
"N#Cc1c(-c2cccc(NC(=O)CCCN)c2)cc(-c2ccccc2O)nc1NC(=O)c1cccs1 [Example 23, N-[4-{3-[(4-aminobutanoyl)amino]phenyl}-3-cyano-6-(2-hydroxyphenyl)pyridin-2-yl]thiophene-2-carboxamide dihydrochloride]",IC50,[1],≤ 10 µM
same,IC50,[3],≤ 10 µM
"Cl.N#Cc1c(-c2cccc(NC(=O)CCN)c2)cc(-c2ccccc2O)nc1NC(=O)c1cccs1 [Example 14, N-{4-[3-(β-alanylamino)phenyl]-3-cyano-6-(2-hydroxyphenyl)pyridin-2-yl}thiophene-2-carboxamide hydrochloride]",IC50,[1],≤ 10 µM
same,melting point,,223 to 228 °C
same,IC50,[3],≤ 10 µM
"NCCC(=O)Nc1cccc(-c2cc(NC(=O)c3cccs3)nc(-c3ccccc3O)c2)c1 [Example 27, N-{4-[3-(β-alanylamino)phenyl]-6-(2-hydroxyphenyl)pyridin-2-yl}thiophene-2-carboxamide dihydrochloride]",IC50,[1],≤ 10 µM
same,IC50,[3],≤ 10 µM
